ChEMBL document CHEMBL1201862, “PubChem BioAssay data set” (2004)
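Briefly, cells in 96-well plates were exposed to five compound concentrations for 48 h, and endpoints were estimated by linear interpolation. The concentration for 50% growth inhibition is given as GI50.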 The source made the active and inactive calls. No stated cut-off is given here; in the data, active = GI50 up to about 1.1 µM and inactive = higher.

Key:
Assay in all cases: DTP human tumour cell line panel, 48 h
[1] = system: 786-0
[2] = system: A549
[3] = system: ACHN
[4] = system: CCRF-CEM
[5] = system: COLO 205
[6] = system: DLD-1
[7] = system: DMS-114
[8] = system: DMS-273
[9] = system: EKVX
[10] = system: HCC 2998
[11] = system: HCT-116
[12] = system: HCT-15
[13] = system: HL-60
[14] = system: HOP-62
[15] = system: IGROV-1
[16] = system: K562
[17] = system: LOX IMVI
[18] = system: LXFL 529
[19] = system: M14
[20] = system: M19-MEL
[21] = system: MOLT-4
[22] = system: Malme-3M
[23] = system: NCI-H23
[24] = system: NCI-H460
[25] = system: NCI-H522
[26] = system: OVCAR-3
[27] = system: OVCAR-8
[28] = system: RPMI-8226
[29] = system: RXF 393
[30] = system: SF-268
[31] = system: SF-295
[32] = system: SF-539
[33] = system: SK-MEL-28
[34] = system: SK-OV-3
[35] = system: SN12C
[36] = system: SNB-19
[37] = system: SNB-75
[38] = system: SNB-78
[39] = system: SR
[40] = system: SW-620
[41] = system: TK-10
[42] = system: U-251
[43] = system: UACC-257
[44] = system: UACC-62
[45] = system: UO-31
[46] = system: A498
[47] = system: CAKI-1
[48] = system: HOP-18
[49] = system: HOP-92
[50] = system: HT-29
[51] = system: KM-20L2
[52] = system: KM12
[53] = system: NCI-H226
[54] = system: OVCAR-4
[55] = system: OVCAR-5
[56] = system: SK-MEL-2
[57] = system: SK-MEL-5

In the case of `CCCCCCCCCCCCOP(N)(=O)OCCCCCCCCCCCC`, the GI50 [1] is reported as > 100 µM (inactive), the GI50 [2] is reported as > 100 µM (inactive) and the GI50 [3] is reported as > 100 µM (inactive). The GI50 [4] was > 100 µM (inactive), the GI50 [5] was > 100 µM (inactive) and the GI50 [6] was > 100 µM (inactive). The GI50 [7] was > 100 µM (inactive), the GI50 [8] was > 100 µM (inactive) and the GI50 [9] was > 100 µM (inactive). For the same molecule, the GI50 [10] was > 100 µM (inactive), the GI50 [11] was > 100 µM (inactive) and the GI50 [12] was over 100 µM. For the same molecule, the GI50 [13] was > 100 µM (inactive), the GI50 [14] was > 100 µM (inactive) and the GI50 [15] was > 100 µM (inactive). The GI50 [16] was > 100 µM (inactive), the GI50 [17] was > 100 µM (inactive) and the GI50 [18] was > 100 µM (inactive). The GI50 [19] was > 100 µM (inactive), the GI50 [20] was > 100 µM (inactive) and the GI50 [21] was > 100 µM (inactive). For the same molecule, the GI50 [22] was > 100 µM (inactive), the GI50 [23] was > 100 µM (inactive) and the GI50 [24] was > 100 µM (inactive). For the same molecule, the GI50 [25] was > 100 µM (inactive), the GI50 [26] was > 100 µM (inactive) and the GI50 [27] was > 100 µM (inactive). The GI50 [28] was > 100 µM (inactive), the GI50 [29] was > 100 µM (inactive) and the GI50 [30] was > 100 µM (inactive). The GI50 [31] was > 100 µM (inactive), the GI50 [32] was > 100 µM (inactive) and the GI50 [33] was > 100 µM (inactive). For the same molecule, the GI50 [34] was > 100 µM (inactive), the GI50 [35] was > 100 µM (inactive) and the GI50 [36] was > 100 µM (inactive). The GI50 [37] was > 100 µM (inactive), the GI50 [38] was > 100 µM (inactive) and the GI50 [39] was > 100 µM (inactive). For the same molecule, the GI50 [40] was > 100 µM (inactive), the GI50 [41] was > 100 µM (inactive) and the GI50 [42] was > 100 µM (inactive). For the same molecule, the GI50 [43] was > 100 µM (inactive), the GI50 [44] was > 100 µM (inactive) and the GI50 [45] was > 100 µM (inactive).

`Cc1ccc(SC(C)/C=C/NNC2=NN=C(c3ccccc3)C(c3ccccc3)N2)cc1` (stereo not drawn) was tested, and the GI50 [1] was 39.6 µM (inactive), the GI50 [46] was 40.4 µM (inactive) and the GI50 [2] was 33.1 µM (inactive). For the same molecule, the GI50 [3] was 29.6 µM (inactive), the GI50 [47] was 13.5 µM (inactive) and the GI50 [4] was 21.5 µM (inactive). The GI50 [5] was 36.1 µM (inactive), the GI50 [6] was 27.4 µM (inactive) and the GI50 [7] was 28.8 µM (inactive). The GI50 [8] was 32.5 µM (inactive), the GI50 [9] was 44.8 µM (inactive) and the GI50 [10] was 28 µM (inactive). The GI50 [11] was 39.6 µM (inactive), the GI50 [12] was 26.9 µM and the GI50 [13] was 13 µM (inactive). For the same molecule, the GI50 [48] was 24.1 µM (inactive), the GI50 [49] was 20 µM (inactive) and the GI50 [50] was 13.3 µM (inactive). For the same molecule, the GI50 [15] was 31.1 µM (inactive), the GI50 [16] was 36.9 µM (inactive) and the GI50 [51] was 14 µM (inactive). The GI50 [52] was 27.5 µM (inactive), the GI50 [17] was 25.7 µM (inactive) and the GI50 [18] was 25.8 µM (inactive). For the same molecule, the GI50 [19] was 38 µM (inactive), the GI50 [20] was 36.6 µM (inactive) and the GI50 [21] was 13.4 µM (inactive). The GI50 [22] was 49.8 µM (inactive), the GI50 [53] was 29 µM (inactive) and the GI50 [23] was 48.9 µM (inactive). The GI50 [24] was 33.1 µM (inactive), the GI50 [25] was 23.1 µM (inactive) and the GI50 [26] was 25.5 µM (inactive). For the same molecule, the GI50 [54] was 29.1 µM (inactive), the GI50 [55] was 21.5 µM (inactive) and the GI50 [27] was 31.7 µM (inactive). For the same molecule, the GI50 [28] was 27.9 µM (inactive), the GI50 [30] was 28 µM (inactive) and the GI50 [31] was 30.3 µM (inactive). For the same molecule, the GI50 [32] was 34.2 µM (inactive), the GI50 [33] was 76.4 µM (inactive) and the GI50 [56] was 23.4 µM (inactive). For the same molecule, the GI50 [57] was 14.6 µM (inactive), the GI50 [34] was 32.2 µM (inactive) and the GI50 [35] was 36.4 µM (inactive). For the same molecule, the GI50 [37] was 20.7 µM (inactive), the GI50 [38] was 66.7 µM (inactive) and the GI50 [39] was 11.5 µM (inactive). For the same molecule, the GI50 [40] was 46.5 µM (inactive), the GI50 [41] was 75.7 µM (inactive) and the GI50 [43] was 31.5 µM (inactive). The GI50 [44] was 14.9 µM (inactive) and the GI50 [45] was 12.4 µM (inactive).
